The structures appear in SMILES notation.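 Dose response: 5 concentrations. Exposure: 48 h. Format: 96-well plates. Endpoint: linear interpolation; highest concentration if not reached. At the GI50, growth is halved. TGI marks complete inhibition of growth.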 Bounds are passed on as bounds.

Test systems include EKVX NSCLC; HL-60(TB) leukemia; HT29 colon; IGROV1 ovarian; NCI-H23 lung; NCI/ADR-RES ovarian; RPMI-8226 leukemia; SF-268 CNS; SW-620 colon; UACC-257 melanoma.
Holding throughout (experiment): inhibition of tumour cell growth, NCI panel, 48 h

For `Cc1c2cc[n+](Cc3ccc(I)cc3)cc2c(C)c2c1[nH]c1ccccc12`, the TGI with EKVX NSCLC was 7.85 µM; with HL-60(TB) leukemia, 1.11 µM; with HT29 colon, greater than 25 µM; in the experiment with IGROV1 ovarian, greater than 25 µM; with NCI-H23 lung it was 9.13 µM; in the experiment on NCI/ADR-RES ovarian, greater than 25 µM. In addition, the TGI was 2.4 µM with RPMI-8226 leukemia, 7.18 µM with SF-268 CNS, greater than 25 µM in the experiment with SW-620 colon and 2.09 µM with UACC-257 melanoma.

Turning to `N#C[S-].[La+3].c1ccc(-c2ccccn2)nc1.c1ccc(-c2ccccn2)nc1.c1ccc(-c2ccccn2)nc1`, the GI50 in the experiment on EKVX NSCLC is 22 µM; in the experiment on HT29 colon it was 18.7 µM; in the experiment on IGROV1 ovarian it was 25.6 µM; in the experiment on NCI-H23 lung, 29.1 µM; with SW-620 colon, 33.6 µM; in the experiment with UACC-257 melanoma, 24.3 µM. The TGI was greater than 100 µM in the experiment with EKVX NSCLC; greater than 100 µM in the experiment on HT29 colon; 60.5 µM with IGROV1 ovarian; greater than 100 µM with NCI-H23 lung; greater than 100 µM with SW-620 colon; 65.2 µM with UACC-257 melanoma.

For the molecule `O=c1cc(-c2cccc(OC(F)(F)F)c2)[nH]c2ccc(N3CCCC3)cc12`, in the experiment with EKVX NSCLC, the GI50 was 0.0493 µM. For the same molecule, the TGI is greater than 100 µM in the experiment with EKVX NSCLC; less than 0.0001 µM with HL-60(TB) leukemia; 0.00166 µM in the experiment on HT29 colon; 0.0502 µM in the experiment with NCI-H23 lung; 0.000673 µM in the experiment with NCI/ADR-RES ovarian; 19.1 µM with SF-268 CNS. Also, the TGI in the experiment with SW-620 colon and in the experiment with UACC-257 melanoma was greater than 100 µM in each case.

For the molecule `[CH3][Sn]([CH3])([CH3])[S]C(=S)N1CCOCC1`, the GI50 in the experiment on EKVX NSCLC is 4.96 µM; with HL-60(TB) leukemia it was 0.217 µM; in the experiment with HT29 colon it was 0.28 µM; in the experiment on IGROV1 ovarian, 0.69 µM; with NCI-H23 lung, 0.345 µM; in the experiment on NCI/ADR-RES ovarian, 1.82 µM. Besides, the GI50 in the experiment on RPMI-8226 leukemia was 0.362 µM; in the experiment with SF-268 CNS it was 3.65 µM; in the experiment on SW-620 colon it was 0.208 µM; with UACC-257 melanoma, 1.22 µM. Also, the TGI was greater than 100 µM with EKVX NSCLC; 1.3 µM in the experiment on HL-60(TB) leukemia; 1.5 µM in the experiment on HT29 colon; 8.52 µM in the experiment with IGROV1 ovarian; 4.94 µM in the experiment with NCI-H23 lung; 11.2 µM with NCI/ADR-RES ovarian. Further, the TGI with RPMI-8226 leukemia is 2.22 µM; with SF-268 CNS, greater than 100 µM; in the experiment on SW-620 colon it was 2.42 µM; in the experiment with UACC-257 melanoma it was 14.9 µM.

For the molecule `CCCCCCCCCCCC1N=C(N)N=C(N)N1c1cccc(Br)c1` (stereo unspecified), the GI50 with EKVX NSCLC was 1.05 µM; with HT29 colon, 0.412 µM; with IGROV1 ovarian, 1.14 µM; in the experiment on NCI-H23 lung, 1.18 µM; in the experiment with NCI/ADR-RES ovarian, 14.6 µM; in the experiment with RPMI-8226 leukemia, 1.68 µM. Moreover, the GI50 in the experiment with SF-268 CNS was 1.28 µM; with SW-620 colon, 0.837 µM. Besides, the TGI with EKVX NSCLC is 2.44 µM; in the experiment on HT29 colon, 1.71 µM; with IGROV1 ovarian it was 2.58 µM; with NCI-H23 lung, 2.69 µM; in the experiment with NCI/ADR-RES ovarian, 39.6 µM; in the experiment on RPMI-8226 leukemia it was 4.21 µM. In addition, the TGI with SF-268 CNS was determined as 2.7 µM; with SW-620 colon it was 2.26 µM.

With `CC1OC(OC2C(O)CC(OC3C(O)CC(OC4CCC5(C)C(CCC6C5CCC5(C)C(C7=CC(=O)OC7)C(O)CC65O)C4)OC3C)OC2C)CC(O)C1O` (stereo unspecified), the TGI came out at 0.63 µM with EKVX NSCLC; 1.23 µM with HL-60(TB) leukemia; 0.886 µM in the experiment on HT29 colon; 9.81 µM in the experiment on IGROV1 ovarian; 0.313 µM in the experiment with NCI-H23 lung; 0.968 µM in the experiment with NCI/ADR-RES ovarian. The figures for the TGI in the experiment with RPMI-8226 leukemia, with SF-268 CNS and in the experiment with UACC-257 melanoma were 1.52 µM, 0.607 µM and 2.07 µM, respectively.

Take `O=C(Nc1cccc(-n2ccc3c(NC(=O)c4ccccc4)ncnc32)c1)Nc1ccc(Cl)c(C(F)(F)F)c1`: the GI50 in the experiment with EKVX NSCLC was 2.71 µM; in the experiment with HL-60(TB) leukemia, 1.87 µM; in the experiment on HT29 colon it was 1.87 µM; with IGROV1 ovarian it was 2.92 µM; in the experiment on NCI-H23 lung it was 1.97 µM; in the experiment with NCI/ADR-RES ovarian, 3.73 µM. Moreover, the GI50 in the experiment with RPMI-8226 leukemia is 1.02 µM; in the experiment on SF-268 CNS it was 3.69 µM; in the experiment with SW-620 colon, 3.26 µM; in the experiment with UACC-257 melanoma it was 2.67 µM. For the same molecule, the TGI was 9.84 µM with EKVX NSCLC; 5.28 µM in the experiment with HL-60(TB) leukemia; 7.87 µM in the experiment with HT29 colon; 17.1 µM with IGROV1 ovarian; 18.7 µM in the experiment on NCI-H23 lung; 32 µM in the experiment with NCI/ADR-RES ovarian. The TGI in the experiment with RPMI-8226 leukemia is 2.8 µM; in the experiment with SF-268 CNS it was 10.5 µM; in the experiment with SW-620 colon it was 10.1 µM; in the experiment on UACC-257 melanoma it was 8.43 µM.

`Brc1ccc2[nH]c3c(C4=NCCC4)nccc3c2c1`: the TGI is 57.3 µM in the experiment on EKVX NSCLC; 18.6 µM with HL-60(TB) leukemia; greater than 38.7 µM in the experiment on HT29 colon; greater than 78.7 µM in the experiment with IGROV1 ovarian; greater than 79.7 µM with NCI-H23 lung; greater than 100 µM with NCI/ADR-RES ovarian. Also, the TGI with RPMI-8226 leukemia is greater than 36 µM; in the experiment with SF-268 CNS, greater than 70.4 µM; in the experiment with SW-620 colon it was greater than 86.6 µM; with UACC-257 melanoma, greater than 49.7 µM.

Turning to `Oc1c(Br)cc2c(c1Br)-c1c(c(O)c3c4c1=NCCC=4C=N3)NCC2`, the TGI came to 46.1 µM with EKVX NSCLC; 16.9 µM with HL-60(TB) leukemia; 20.8 µM in the experiment with HT29 colon; 27.4 µM with IGROV1 ovarian; 30.3 µM in the experiment with NCI-H23 lung; 34.3 µM in the experiment on NCI/ADR-RES ovarian. The TGI with RPMI-8226 leukemia turned out to be 29.8 µM; with SF-268 CNS, 23.2 µM; in the experiment with SW-620 colon, 50.1 µM; with UACC-257 melanoma, 20 µM.

Values taken from PubChem BioAssay (NCI).
